Assays:
Assay in all cases: relative viability (nuclei count vs DMSO), 5 days (fraction); higher = more cells survive
[1] = compound: CC(C)C[C@H](NC(=O)[C@H](CCc1ccccc1)NC(=O)CN1CCOCC1)C(=O)N[C@@H](Cc1ccccc1)C(=O)N[C@@H](CC(C)C)C(=O)[C@@]1(C)CO1 [Carfilzomib] + CC(=O)c1c(C)c2cnc(Nc3ccc(N4CCNCC4)cn3)nc2n(C2CCCC2)c1=O [Palbociclib] (partner 0.5 µM)
Method in brief: (§1)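 Each reported value is a median over duplicate plates. It expresses relative viability: treated-well nuclei count divided by vehicle-well nuclei count. Lung cancer cell lines in 1536-well plates were dosed by pin tool a day after seeding, alone with one drug or with a fixed anchor-drug dose plus five library-drug doses (not always all listed) in √10 steps, and nuclei were counted after 5 days.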

Crizotinib + OSI-027 = compound: C[C@@H](Oc1cc(-c2cnn(C3CCNCC3)c2)cnc1N)c1c(Cl)ccc(F)c1Cl [Crizotinib] + COc1cccc2cc(-c3nc([C@H]4CC[C@H](C(=O)O)CC4)n4ncnc(N)c34)[nH]c12 [OSI-027] (partner 0.5 µM)
Method in brief: as §1

Crizotinib + Pictilisib = compound: C[C@@H](Oc1cc(-c2cnn(C3CCNCC3)c2)cnc1N)c1c(Cl)ccc(F)c1Cl [Crizotinib] + CS(=O)(=O)N1CCN(Cc2cc3nc(-c4cccc5[nH]ncc45)nc(N4CCOCC4)c3s2)CC1 [Pictilisib] (partner 1 µM)
Method in brief: as §1

Crizotinib + Phenformin = compound: C[C@@H](Oc1cc(-c2cnn(C3CCNCC3)c2)cnc1N)c1c(Cl)ccc(F)c1Cl [Crizotinib] + N=C(N)NC(=N)NCCc1ccccc1 [Phenformin] (partner 250 µM)
Method in brief: as §1

Cell Line	relative viability ([1]; first compound 0.001 µM)	relative viability ([1]; first compound 0.003162 µM)	relative viability ([1]; first compound 0.01 µM)	relative viability ([1]; first compound 0.03162 µM)	relative viability ([1]; first compound 0.1 µM)	relative viability (Crizotinib + OSI-027; first compound 0.01 µM)	relative viability (Crizotinib + OSI-027; first compound 0.03162 µM)	relative viability (Crizotinib + OSI-027; first compound 0.1 µM)	relative viability (Crizotinib + OSI-027; first compound 1 µM)	relative viability (Crizotinib + Pictilisib; first compound 0.01 µM)	relative viability (Crizotinib + Pictilisib; first compound 0.03162 µM)	relative viability (Crizotinib + Pictilisib; first compound 0.1 µM)	relative viability (Crizotinib + Pictilisib; first compound 1 µM)	relative viability (Crizotinib + Phenformin; first compound 0.01 µM)	relative viability (Crizotinib + Phenformin; first compound 0.03162 µM)	relative viability (Crizotinib + Phenformin; first compound 0.1 µM)	relative viability (Crizotinib + Phenformin; first compound 1 µM)	relative viability (Crizotinib + OSI-027; first compound 0.3162 µM)	relative viability (Crizotinib + Pictilisib; first compound 0.3162 µM)	relative viability (Crizotinib + Phenformin; first compound 0.3162 µM)
NCI-H23	0.508	0.484	0.429	0.212	0.116	0.631	0.58	0.66	0.541	0.441	0.539	0.505	0.541	0.743	0.855	0.783	0.795			
NCI-H322M	0.487	0.475	0.543	0.522	0.37	0.519	0.521	0.478	0.502	0.432	0.522	0.493	0.52	0.627	0.821	0.799	0.797	0.535	0.585	0.579
NCI-H358	0.139	0.117	0.114	0.0724	0.0923	0.628	0.897	0.673	0.772	0.338	0.354	0.35	0.325	0.231	0.324	0.26	0.347	0.664	0.27	0.309
NCI-H441	0.217	0.219	0.178	0.0969	0.155	0.569	0.553	0.601	0.603	0.436	0.395	0.432	0.443	0.671	0.87	0.713			0.34	
NCI-H460	0.125	0.225	0.0809	0.0983	0.0171	0.536	0.931	0.479	0.708	0.4	0.349	0.302	0.314	0.488	0.521	0.536	0.564	0.6	0.309	0.526
NCI-H520	0.187	0.217	0.162	0.133	0.144	0.272	0.295	0.24	0.258	0.261	0.333	0.303	0.251	0.449	0.682	0.588	0.45	0.27	0.319	0.281
NCI-H647	0.458	0.45	0.306	0.0189	0.0185	0.736	0.516	0.641	0.663	0.432	0.393	0.459	0.269	0.494	0.634	0.429	0.488	0.531		0.513
NCI-H650	0.331	0.362	0.367	0.224	0.14	0.587	0.508	0.544	0.59	0.883	0.893	0.865	0.783	0.392	0.451	0.482	0.44	0.423	0.799	0.365
